Drawing on patent US12037333B2, “Pyridopyrazine and pyridotriazine inhibitors of influenza virus replication” (priority 2018, dated 2024), this text covers EC50 for 4 compounds.

The structures appear in SMILES notation. A value given as a limit tells only on which side of the number the result lay.

The subject of this experiment is Influenza type A (strain A/PR/8/34, ATCC VR-95). Description: Influenza antiviral assay: inhibition of virus-induced cytopathic effects (CPE) in MDCK cells, XTT dye reduction. Format: cell-based. The settings on record: Influenza A virus, H1N1 / PR/8, MDCK, 96 h, strain A/PR/8/34, MDCK cells, CPE inhibition at 4 days. On the technique in general: Damage to the host cells serves as the signal in cytopathic effect assays.
`CCN1CN(C23c4ccccc4CC2(C)Cc2c3ccc(F)c2F)n2ccc(=O)c(O)c2C1=O` (stereo not shown) [Compound A164]: the EC50 is less than 125 nM. For `CN1CN(C23c4ccccc4CC2(C)Cc2c3ccc(F)c2F)n2ccc(=O)c(O)c2C1=O` (stereo not shown) [Compound A165] the value was less than 125 nM. In the case of `CCC1N(C)C(=O)c2c(O)c(=O)ccn2N1C12c3ccccc3CC1Cc1ccccc12` (stereo not shown) [Compound A166], the EC50 is less than 125 nM. For `CC(C)N1CN(C23c4ccccc4CC2(C)Cc2c3ccc(F)c2F)n2ccc(=O)c(O)c2C1=O` (stereo not shown) [Compound A167] the value was less than 125 nM.

One may read the EC50 as the concentration giving half of the maximal effect.
